Laboratory results: PubChem BioAssay AID1918954 (Molecular Pharmacology Branch, DTP, NCI, 2023)

System: MDA-MB-468 complex spheroids with HUVEC/MSC, viability
Experiment: Anticancer human tumor MDA-MB-468 cell line growth inhibition;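 also: spheroids exposed to agents for seven days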;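 as to viability, T/C: 100% = DMSO vehicle control viability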
Conditions: for IC50: curve of first compound; for viability, T/C: stronger effect = lower value
In short: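 Multicellular complex spheroids of tumor cells with human endothelial cells (HUVEC) and mesenchymal stem cells; the LSD1 inhibitor iadademstat was combined with standard-of-care or investigational agents. Top concentration at or near clinical Cmax, half-log dilutions; final DMSO ≤0.25%.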

Nc1ncn(C2CC(O)C(CO)S2)c(=O)n1 (stereo not given) + NC1CCC(NC2CC2c2ccccc2)CC1
IC50 (second compound 0.1 µM): 0.0883 µM | IC50 (second compound 0.316 µM): 0.0905 µM | IC50 (second compound 1 µM): 0.0804 µM | IC50 (second compound 3.16 µM): 0.0657 µM | IC50 (second compound 10 µM): 0.0116 µM | viability, T/C (second compound 0.1 µM, first compound 0.000949 µM): 90.8% | viability, T/C (second compound 0.1 µM, first compound 0.003 µM): 95.7% | viability, T/C (second compound 0.1 µM, first compound 0.00949 µM): 76.8% | viability, T/C (second compound 0.1 µM, first compound 0.03 µM): 59.6% | viability, T/C (second compound 0.1 µM, first compound 0.0949 µM): 54.5% | viability, T/C (second compound 0.1 µM, first compound 0.3 µM): 35% | viability, T/C (second compound 0.316 µM, first compound 0.000949 µM): 89.7% | viability, T/C (second compound 0.316 µM, first compound 0.003 µM): 80% | viability, T/C (second compound 0.316 µM, first compound 0.00949 µM): 72.8% | viability, T/C (second compound 0.316 µM, first compound 0.03 µM): 71.3% | viability, T/C (second compound 0.316 µM, first compound 0.0949 µM): 45.6% | viability, T/C (second compound 0.316 µM, first compound 0.3 µM): 29.8% | viability, T/C (second compound 1 µM, first compound 0.000949 µM): 76.5% | viability, T/C (second compound 1 µM, first compound 0.003 µM): 87.8% | viability, T/C (second compound 1 µM, first compound 0.00949 µM): 76.1% | viability, T/C (second compound 1 µM, first compound 0.03 µM): 64.1% | viability, T/C (second compound 1 µM, first compound 0.0949 µM): 48.5% | viability, T/C (second compound 1 µM, first compound 0.3 µM): 38.1% | viability, T/C (second compound 3.16 µM, first compound 0.000949 µM): 81.2% | viability, T/C (second compound 3.16 µM, first compound 0.003 µM): 68.3% | viability, T/C (second compound 3.16 µM, first compound 0.00949 µM): 76% | viability, T/C (second compound 3.16 µM, first compound 0.03 µM): 67.5% | viability, T/C (second compound 3.16 µM, first compound 0.0949 µM): 41.8% | viability, T/C (second compound 3.16 µM, first compound 0.3 µM): 33.7% | viability, T/C (second compound 10 µM, first compound 0.000949 µM): 64.6% | viability, T/C (second compound 10 µM, first compound 0.003 µM): 53% | viability, T/C (second compound 10 µM, first compound 0.00949 µM): 54.5% | viability, T/C (second compound 10 µM, first compound 0.03 µM): 43% | viability, T/C (second compound 10 µM, first compound 0.0949 µM): 40% | viability, T/C (second compound 10 µM, first compound 0.3 µM): 31.1%

O=C(C=Cn1cnc(-c2cc(C(F)(F)F)cc(C(F)(F)F)c2)n1)NNc1cnccn1 + NC1CCC(NC2CC2c2ccccc2)CC1
IC50 (second compound 0.1 µM): < 0.00316 µM | IC50 (second compound 0.316 µM): < 0.00316 µM | IC50 (second compound 1 µM): < 0.00316 µM | IC50 (second compound 3.16 µM): < 0.00316 µM | IC50 (second compound 10 µM): < 0.00316 µM | viability, T/C (second compound 0.1 µM, first compound 0.00316 µM): 45.1% | viability, T/C (second compound 0.1 µM, first compound 0.01 µM): 29.7% | viability, T/C (second compound 0.1 µM, first compound 0.0316 µM): 11.8% | viability, T/C (second compound 0.1 µM, first compound 0.1 µM): 3.32% | viability, T/C (second compound 0.1 µM, first compound 0.316 µM): 2.51% | viability, T/C (second compound 0.1 µM, first compound 1 µM): 1.85% | viability, T/C (second compound 0.316 µM, first compound 0.00316 µM): 38.9% | viability, T/C (second compound 0.316 µM, first compound 0.01 µM): 26.9% | viability, T/C (second compound 0.316 µM, first compound 0.0316 µM): 9.03% | viability, T/C (second compound 0.316 µM, first compound 0.1 µM): 2.83% | viability, T/C (second compound 0.316 µM, first compound 0.316 µM): 7.44% | viability, T/C (second compound 0.316 µM, first compound 1 µM): 2.14% | viability, T/C (second compound 1 µM, first compound 0.00316 µM): 37.4% | viability, T/C (second compound 1 µM, first compound 0.01 µM): 32% | viability, T/C (second compound 1 µM, first compound 0.0316 µM): 10.6% | viability, T/C (second compound 1 µM, first compound 0.1 µM): 3.06% | viability, T/C (second compound 1 µM, first compound 0.316 µM): 2.61% | viability, T/C (second compound 1 µM, first compound 1 µM): 6.02% | viability, T/C (second compound 3.16 µM, first compound 0.00316 µM): 38.8% | viability, T/C (second compound 3.16 µM, first compound 0.01 µM): 31% | viability, T/C (second compound 3.16 µM, first compound 0.0316 µM): 12.4% | viability, T/C (second compound 3.16 µM, first compound 0.1 µM): 3.59% | viability, T/C (second compound 3.16 µM, first compound 0.316 µM): 6.05% | viability, T/C (second compound 3.16 µM, first compound 1 µM): 5.81% | viability, T/C (second compound 10 µM, first compound 0.00316 µM): 35.4% | viability, T/C (second compound 10 µM, first compound 0.01 µM): 30.1% | viability, T/C (second compound 10 µM, first compound 0.0316 µM): 12.3% | viability, T/C (second compound 10 µM, first compound 0.1 µM): 4.27% | viability, T/C (second compound 10 µM, first compound 0.316 µM): 8.47% | viability, T/C (second compound 10 µM, first compound 1 µM): 2.53%
